From patent US7528205B2, “Photo radical generator, photo sensitive resin composition and article” (Dai Nippon Printing Co., Ltd., priority 2003, dated 2009)

Key:
[1] = Evaluation 1 of curability (coating layer with trifunctional acrylate, UV exposure, no hydrogen donor); conditions: for Reaction rate (decrement of double bond): nitrogen; for Compatibility with M305: imide part/double bond 1/50
Procedure: (§1) Using a trifunctional acrylate (product name; M-305, manufactured by Toagosei Co., Ltd.) as polyfunctional monomers, the compounds 1 to 14, the comparative compounds 2 and 3 and a photoradical generator Irgacure 907 (product name; manufactured by Ciba Specialty Chemicals) were mixed with each polyfunctional monomer to prepare each THF solution of each photoradical generator.
(§2) The mixing was performed so that a ratio of the photoradical generator to the polyfunctional monomer is such that number of imide part of each of the compounds 1 to 14 and the comparative compounds 2 and 3 with respect to number of double bond of the polyfunctional monomer is 1/50 (number of imide part/number of polyfunctional monomer) or, in the case of Irgacure, number of the molecule with respect to number of double bond of the polyfunctional monomer is 1/50 (number of Irgacure 907/number of polyfunctional monomer).
(§3) Each solution was applied by spin coating to a glass substrate on which chromium was sputtered to obtain coating layers. Also, a layer without initiator component or comparative compounds and only containing trifunctional acrylate was formed as a blank.
(§4) A decrement of the peak at 810 cm^−1 was recorded with time by using an infrared spectrometer (product name: FTS6000; manufactured by BIO RAD) while exposing the above coating layer to ultraviolet rays, to confirm the degree of the disappearance of a double bond. The atmosphere around the sample during measurement was replaced with nitrogen. As the UV exposure apparatus, UV Spot Cure SP-III type (standard reflecting mirror type) manufactured by Ushio Inc. was used and as the UV lamp, USH-255BY (manufactured by Ushio Inc.) was used.

[2] = Evaluation of heat resistance (thermogravimetry, 5% reduction in weight temperature); format: physicochemical; conditions: for 5% heat decomposition temperature: temperature rise rate 10° C./min; for 5% heat decomposition temperature / heat resistance / 5% reduction in weight temperature, comparison in words: nitrogen atmosphere; for residue on heating: heated to 600° C. in a nitrogen atmosphere; for heat resistance / 5% reduction in weight temperature, comparison in words: 10° C./min
Procedure: Herein, the 5% reduction in weight temperature means a temperature at which the weight of a sample is reduced […] when a decrement of weight is measured using a thermogravimetric analyzer according to the same method as in the examples of the present invention as will be explained later. Similarly, the 10% reduction in weight temperature means a temperature at which the weight of a sample is reduced […].
Using a differential type differential thermal balance (product name: TG8120; manufactured by Rigaku Corporation), the 5% reduction in weight temperature of each of the compounds 1 to 15 was measured at a temperature rise rate of 10° C./min in a nitrogen atmosphere. As comparative examples, the comparative compounds 2 and 3 and a self-cleavage type photoradical generator Irgacure 907 (trademark; manufactured by Ciba Specialty Chemicals) were similarly measured.

[3] = Evaluation 2 of curability (triethanolamine added as hydrogen donor)
Procedure: as §1, §2, §3, §4
In order to confirm whether or not the seven-membered ring imide structure-containing group was a hydrogen-drawing type radical generator, triethanolamine was added to THF solutions containing each of the compositions 1 to 14 used in the aforementioned Evaluation 1 of curability and trifunctional acrylate M305, coating layers were formed in the same manner as in the aforementioned Evaluation 1 of curability, and evaluated similarly. As comparative examples, each of the comparative compounds 1 and 3 was used.

Compound	Reaction rate (decrement of double bond) ([1]; Exposure 50 mJ)	Reaction rate (decrement of double bond) ([1]; Exposure 100 mJ)	Reaction rate (decrement of double bond) ([1]; Exposure 400 mJ)	Compatibility with M305 [1]	5% heat decomposition temperature [2]	Compatibility with M305 [3]	Reaction rate (decrement of double bond) ([3]; Exposure 50 mJ)	Reaction rate (decrement of double bond) ([3]; Exposure 100 mJ)	Reaction rate (decrement of double bond) ([3]; Exposure 400 mJ)	residue on heating [2]	heat resistance / 5% reduction in weight temperature, comparison in words [2]
O=c1c2ccccc2c2ccccc2c(=O)n1CCOCCOCCOCCn1c(=O)c2ccccc2c2ccccc2c1=O [Compound 11]	27.9%	37.3%	42.3%	∘	240 °C	∘	18.0%	21.3%	29.4%	–	–
CC(=O)OCC(C(C)C)n1c(=O)c2ccccc2c2ccccc2c1=O (stereo not drawn) [Compound 4]	0.2%	0.4%	0.9%	∘	208 °C	∘	22.0%	28.2%	40.0%	–	–
CSc1ccc(C(=O)C(C)(C)N2CCOCC2)cc1 [Irg907, reference compound]	34.8%	40.8%	50.6%	∘	207 °C	–	–	–	–	–	–
C=CC(=O)OCCn1c(=O)c2ccccc2c2ccccc2c1=O [Compound 7]	1.5%	3.4%	7.7%	∘	233 °C	∘	25.3%	30.1%	41.3%	carbide was left not decomposed completely	–
C=CC(=O)OCCN1C(=O)C2=C(CCCC2)C1=O [compound 2, reference compound]	0.1%	0.3%	2.0%	∘	184 °C	∘	1.3%	2.0%	8.6%	–	–
CC(=O)OCCn1c(=O)c2ccccc2c2ccccc2c1=O [Compound 2]	0.1%	0.2%	1.2%	∘	240 °C	∘	23.7%	29.4%	41.1%	–	–
C=CC(=O)OCCOCCn1c(=O)c2ccccc2c2ccccc2c1=O [Compound 8]	5.0%	7.3%	21.4%	∘	357 °C	∘	36.2%	41.4%	51.4%	carbide was left not decomposed completely	specifically high
C=COCCCn1c(=O)c2ccccc2c2ccccc2c1=O [Compound 5]	0.4%	0.7%	2.3%	∘	213 °C	∘	23.8%	29.2%	41.0%	–	–
CC(=O)OCCOCCn1c(=O)c2ccccc2c2ccccc2c1=O [Compound 3]	0.1%	0.2%	0.8%	∘	260 °C	∘	26.8%	32.7%	43.7%	–	–
CC(=O)OCCN(CCn1c(=O)c2ccccc2c2ccccc2c1=O)C(C)=O [Compound 14]	1.0%	2.0%	6.4%	∘	234 °C	∘	16.8%	20.9%	30.5%	–	–
CC(=O)OCCOCCOCCn1c(=O)c2ccccc2c2ccccc2c1=O [Compound 6]	3.2%	5.4%	14.2%	∘	257 °C	∘	33.1%	37.9%	47.9%	–	–
CN(C)CCn1c(=O)c2ccccc2c2ccccc2c1=O [Compound 13]	0.2%	0.8%	4.2%	∘	177 °C	∘	11.0%	15.2%	24.8%	–	slightly lower 5% reduction in weight temperature
C=CC(=O)OCCOCCOCCn1c(=O)c2ccccc2c2ccccc2c1=O [Compound 9]	0.5%	0.7%	1.2%	∘	295 °C	∘	13.8%	19.9%	34.4%	–	–
O=c1c2ccccc2c2ccccc2c(=O)n1CCOCCn1c(=O)c2ccccc2c2ccccc2c1=O [Compound 10]	4.0%	6.8%	17.4%	∘	204 °C	∘	30.8%	40.7%	45.9%	–	–
O=c1c2ccccc2c2ccccc2c(=O)n1CCOCCOCCOCCOCCOCCn1c(=O)c2ccccc2c2ccccc2c1=O [Compound 12]	11.0%	15.2%	24.8%	∘	276 °C	∘	25.2%	30.7%	40.6%	–	–
